# Results: US12357652B2, “Formulations of phosphoramidate derivatives of nucleoside drugs” (priority 2015, dated 2025)
# Read-outs that look alike come from different tables or passages of the source.
# Key:
# [1] = Stability of NUC-3373 aqueous infusion solution in 250 ml 0.9% saline bags; type: physicochemical
# Method: The stability of the aqueous infusion solution was also evaluated using three different doses of NUC-3373 (1,000 mg, 2,000 mg and 3,000 mg) diluted in 250 ml 0.9% saline bags at two storage conditions (5° C. and 20° C.).
# [2] = Solubility of NUC-3373 in a range of pharmaceutically relevant solvents; type: physicochemical
# Source text: The solubility of NUC-3373 (mixture of diastereoisomers) in a range of solvents is shown in […]
# [3] = versus 5-FU; cited from earlier work
# [4] = 1,000 mg NUC-3373 in 250 ml 0.9% saline infusion bag, 0 hours, 5° C.
# [5] = 1,000 mg NUC-3373 in 250 ml 0.9% saline infusion bag, 0 hours, 20° C.
# [6] = 1,000 mg NUC-3373 in 250 ml 0.9% saline infusion bag, 8 hours, 5° C.
# [7] = 1,000 mg NUC-3373 in 250 ml 0.9% saline infusion bag, 8 hours, 20° C.
# [8] = 1,000 mg NUC-3373 in 250 ml 0.9% saline infusion bag, 24 hours, 5° C.
# [9] = 1,000 mg NUC-3373 in 250 ml 0.9% saline infusion bag, 24 hours, 20° C.
# [10] = 1,000 mg NUC-3373 in 250 ml 0.9% saline infusion bag, 48 hours, 5° C.
# [11] = 1,000 mg NUC-3373 in 250 ml 0.9% saline infusion bag, 48 hours, 20° C.
# [12] = 2,000 mg NUC-3373 in 250 ml 0.9% saline infusion bag, 0 hours, 5° C.
# [13] = 2,000 mg NUC-3373 in 250 ml 0.9% saline infusion bag, 0 hours, 20° C.
# [14] = 2,000 mg NUC-3373 in 250 ml 0.9% saline infusion bag, 8 hours, 5° C.
# [15] = 2,000 mg NUC-3373 in 250 ml 0.9% saline infusion bag, 8 hours, 20° C.
# [16] = 2,000 mg NUC-3373 in 250 ml 0.9% saline infusion bag, 24 hours, 5° C.
# [17] = 2,000 mg NUC-3373 in 250 ml 0.9% saline infusion bag, 24 hours, 20° C.
# [18] = 2,000 mg NUC-3373 in 250 ml 0.9% saline infusion bag, 48 hours, 5° C.
# [19] = 2,000 mg NUC-3373 in 250 ml 0.9% saline infusion bag, 48 hours, 20° C.
# [20] = 3,000 mg NUC-3373 in 250 ml 0.9% saline infusion bag, 0 hours, 5° C.
# [21] = 3,000 mg NUC-3373 in 250 ml 0.9% saline infusion bag, 0 hours, 20° C.
# [22] = 3,000 mg NUC-3373 in 250 ml 0.9% saline infusion bag, 8 hours, 5° C.
# [23] = 3,000 mg NUC-3373 in 250 ml 0.9% saline infusion bag, 8 hours, 20° C.
# [24] = 3,000 mg NUC-3373 in 250 ml 0.9% saline infusion bag, 24 hours, 5° C.
# [25] = 3,000 mg NUC-3373 in 250 ml 0.9% saline infusion bag, 24 hours, 20° C.
# [26] = 3,000 mg NUC-3373 in 250 ml 0.9% saline infusion bag, 48 hours, 5° C.
# [27] = 3,000 mg NUC-3373 in 250 ml 0.9% saline infusion bag, 48 hours, 20° C.
compound,measurement,setting,value
"C[C@H](NP(=O)(OC[C@H]1O[C@@H](n2cc(F)c(=O)[nH]c2=O)CC1O)Oc1cccc2ccccc12)C(=O)OCc1ccccc1 (stereo partly drawn) [NUC-3373, 5-fluoro-2′-deoxyuridine-5′-O-[1-naphthyl (benzoxy-L-alaninyl)] phosphate]",Assay content NUC-3373,[1]; [4],3.7 mg/mL
same,Osmolarity,[1]; [4],457 mosm/L H20
same,Purity,[1]; [4],96.2 % area
same,Total NUC-3373,[1]; [4],960.9 mg
same,pH,[1]; [4],5.5
same,Assay content NUC-3373,[1]; [5],3.9 mg/mL
same,Osmolarity,[1]; [5],462 mosm/L H20
same,Purity,[1]; [5],96.1 % area
same,Total NUC-3373,[1]; [5],1012.8 mg
same,pH,[1]; [5],5.6
same,Assay content NUC-3373,[1]; [6],3.6 mg/mL
same,Osmolarity,[1]; [6],450 mosm/L H20
same,Purity,[1]; [6],96.1 % area
same,Total NUC-3373,[1]; [6],934.9 mg
same,pH,[1]; [6],5.6
same,Assay content NUC-3373,[1]; [7],3.7 mg/mL
same,Osmolarity,[1]; [7],459 mosm/L H20
same,Purity,[1]; [7],96.1 % area
same,Total NUC-3373,[1]; [7],960.9 mg
same,pH,[1]; [7],5.5
same,Assay content NUC-3373,[1]; [8],3.6 mg/mL
same,Osmolarity,[1]; [8],456 mosm/L H20
same,Purity,[1]; [8],96.1 % area
same,Total NUC-3373,[1]; [8],934.9 mg
same,pH,[1]; [8],5.6
same,Assay content NUC-3373,[1]; [9],3.7 mg/mL
same,Osmolarity,[1]; [9],462 mosm/L H20
same,Purity,[1]; [9],96.1 % area
same,Total NUC-3373,[1]; [9],960.9 mg
same,pH,[1]; [9],5.8
same,Assay content NUC-3373,[1]; [10],3.6 mg/mL
same,Osmolarity,[1]; [10],451 mosm/L H20
same,Purity,[1]; [10],96.2 % area
same,Total NUC-3373,[1]; [10],934.9 mg
same,pH,[1]; [10],5.5
same,Assay content NUC-3373,[1]; [11],3.8 mg/mL
same,Osmolarity,[1]; [11],455 mosm/L H20
same,Purity,[1]; [11],96.1 % area
same,Total NUC-3373,[1]; [11],986.9 mg
same,pH,[1]; [11],5.5
same,Assay content NUC-3373,[1]; [12],7.2 mg/mL
same,Osmolarity,[1]; [12],639 mosm/L H20
same,Purity,[1]; [12],96.1 % area
same,Total NUC-3373,[1]; [12],1946 mg
same,pH,[1]; [12],5.5
same,Assay content NUC-3373,[1]; [13],7.4 mg/mL
same,Osmolarity,[1]; [13],646 mosm/L H20
same,Purity,[1]; [13],96.1 % area
same,Total NUC-3373,[1]; [13],2000 mg
same,pH,[1]; [13],5.5
same,Assay content NUC-3373,[1]; [14],7.0 mg/mL
same,Osmolarity,[1]; [14],637 mosm/L H20
same,Purity,[1]; [14],96.2 % area
same,Total NUC-3373,[1]; [14],1892 mg
same,pH,[1]; [14],5.5
same,Assay content NUC-3373,[1]; [15],7.5 mg/mL
same,Osmolarity,[1]; [15],633 mosm/L H20
same,Purity,[1]; [15],96.1 % area
same,Total NUC-3373,[1]; [15],2027 mg
same,pH,[1]; [15],5.5
same,Assay content NUC-3373,[1]; [16],6.9 mg/mL
same,Osmolarity,[1]; [16],638 mosm/L H20
same,Purity,[1]; [16],96.1 % area
same,Total NUC-3373,[1]; [16],1865 mg
same,pH,[1]; [16],5.5
same,Assay content NUC-3373,[1]; [17],7.2 mg/mL
same,Osmolarity,[1]; [17],639 mosm/L H20
same,Purity,[1]; [17],96.1 % area
same,Total NUC-3373,[1]; [17],1946 mg
same,pH,[1]; [17],5.5
same,Assay content NUC-3373,[1]; [18],7.0 mg/mL
same,Osmolarity,[1]; [18],635 mosm/L H20
same,Purity,[1]; [18],96.1 % area
same,Total NUC-3373,[1]; [18],1892 mg
same,pH,[1]; [18],5.4
same,Assay content NUC-3373,[1]; [19],7.1 mg/mL
same,Osmolarity,[1]; [19],632 mosm/L H20
same,Purity,[1]; [19],96.1 % area
same,Total NUC-3373,[1]; [19],1919 mg
same,pH,[1]; [19],5.4
same,Assay content NUC-3373,[1]; [20],10.2 mg/mL
same,Osmolarity,[1]; [20],831 mosm/L H20
same,Purity,[1]; [20],96.1 % area
same,Total NUC-3373,[1]; [20],2857 mg
same,pH,[1]; [20],5.5
same,Assay content NUC-3373,[1]; [21],10.4 mg/mL
same,Osmolarity,[1]; [21],818 mosm/L H20
same,Purity,[1]; [21],96.1 % area
same,Total NUC-3373,[1]; [21],2913 mg
same,pH,[1]; [21],5.5
same,Assay content NUC-3373,[1]; [22],10.4 mg/mL
same,Osmolarity,[1]; [22],823 mosm/L H20
same,Purity,[1]; [22],96.2 % area
same,Total NUC-3373,[1]; [22],2913 mg
same,pH,[1]; [22],5.5
same,Assay content NUC-3373,[1]; [23],10.5 mg/mL
same,Osmolarity,[1]; [23],812 mosm/L H20
same,Purity,[1]; [23],96.1 % area
same,Total NUC-3373,[1]; [23],2941 mg
same,pH,[1]; [23],5.5
same,Assay content NUC-3373,[1]; [24],10.1 mg/mL
same,Osmolarity,[1]; [24],825 mosm/L H20
same,Purity,[1]; [24],96.1 % area
same,Total NUC-3373,[1]; [24],2829 mg
same,pH,[1]; [24],5.5
same,Assay content NUC-3373,[1]; [25],10.4 mg/mL
same,Osmolarity,[1]; [25],817 mosm/L H20
same,Purity,[1]; [25],96.1 % area
same,Total NUC-3373,[1]; [25],2913 mg
same,pH,[1]; [25],5.5
same,Assay content NUC-3373,[1]; [26],10.0 mg/mL
same,Osmolarity,[1]; [26],821 mosm/L H20
same,Purity,[1]; [26],96.2 % area
same,Total NUC-3373,[1]; [26],2801 mg
same,pH,[1]; [26],5.6
same,Assay content NUC-3373,[1]; [27],10.1 mg/mL
same,Osmolarity,[1]; [27],812 mosm/L H20
same,Purity,[1]; [27],96.1 % area
same,Total NUC-3373,[1]; [27],2829 mg
same,pH,[1]; [27],5.4
same,Stability,"[1]; aqueous infusion solutions at all dose strengths (1,000 mg, 2,000 mg, 3,000 mg in 250 ml 0.9% saline), up to 48 hours at 5° C. and 20° C.",stable
same,Solubility,"[2]; DMA, organic solvent or mixture, read-out: Solubility",950 mg/mL
same,Solubility,"[2]; DMSO, organic solvent or mixture, read-out: Solubility",948 mg/mL
same,Solubility,"[2]; NMP, organic solvent or mixture, read-out: Solubility",705 mg/mL
same,Solubility,"[2]; PEG 400, organic solvent or mixture, read-out: Solubility",422 mg/mL
same,Solubility,[2]; Water,extremely low
same,Solubility,"[2]; ethanol, organic solvent or mixture, read-out: Solubility",778 mg/mL
same,Solubility,"[2]; propylene glycol, organic solvent or mixture, read-out: Solubility",449 mg/mL
same,Solubility,"[2]; water, read-out: Solubility",< 2 mg/mL
same,Tolerability,[3],significantly better tolerated than 5-FU
